In article PMC10051810, “Modification of the Linker Amino Acid in the Cell-Penetrating Peptide NickFect55 Leads to Enhanced pDNA Transfection for In Vivo Applications” (Pharmaceutics, 2023):

Test system: BALB/c mice
Test: In vivo safety: ALAT and ASAT from blood, body weight
Design: species or system mouse
Protocol: For in vivo studies, the pLuc was mixed with the CPP at CR2 in MilliQ water, wherein the dose per animal was 2.5 mg/kg. After 30 min of incubation at room temperature, glucose was added to the complexes to obtain an isotonic solution with a final injection volume of 336 µL, which was immediately injected intravenously via the tail vein.
In vivo safety was evaluated by measuring the alanine aminotransferase and the aspartate aminotransferase levels from the blood of mice injected with nanoparticles formed between NF55 analogues and pDNA. Additionally, the mice were weighed preinjection with the CPP-pDNA complexes and prior to sacrifice. […]
1 – Alanine aminotransferase 2 – Aspartate aminotransferase

[1] = blood of mice injected i.v. with CPP/pDNA nanoparticles, pLuc 2.5 mg/kg, CR2

Compound: CCCCCCCCCCCCCCCCCC(=O)N[C@@H](C)C(=O)NCC(=O)N[C@@H](Cc1ccc(O)cc1)C(=O)N[C@@H](CC(C)C)C(=O)N[C@@H](CC(C)C)C(=O)NCC(=O)NCCC[C@H](N)C(=O)N[C@H](C(=O)N[C@@H](CC(N)=O)C(=O)N[C@@H](CC(C)C)C(=O)N[C@@H](CCCCN)C(=O)N[C@@H](C)C(=O)N[C@@H](CC(C)C)C(=O)N[C@@H](C)C(=O)N[C@@H](C)C(=O)N[C@@H](CC(C)C)C(=O)N[C@@H](C)C(=O)N[C@@H](CCCCN)C(=O)N[C@@H](C)C(=O)N[C@H](C(=O)N[C@@H](CC(C)C)C(N)=O)[C@@H](C)CC)[C@@H](C)CC [NF55]
- ALAT (alanine aminotransferase) [1]: 629
- ASAT (aspartate aminotransferase) [1]: 184
- Pre-injection weight (weight of mice before injecting with CPP/pDNA nanoparticles): 26.96 grams
- Post-injection weight (weight of mice before sacrificing for ex vivo tissue analysis): 25.35 grams
